One molecule from patent US12544375B2, “Small molecule therapeutic for parkinson's disease paired with a biomarker of therapeutic activity” (The Board of Trustees of the Leland Stanford Junior …, priority 2019, dated 2026) can be followed below.

Structures are written as SMILES.

The test relates to LRRK2^G2019S, PINK1 null and SNCA^A53T flies. Description: Adult fly climbing ability (negative geotaxis). Particulars: 2.5 μM in food, two models (LRRK2 and PINK1). Format: in vivo. As for the experimental part: FIG. 4A-FIG. 4I. Miro1 Reducer Rescues PD-Relevant Phenotypes in Flies. For all panels, when Miro1 Reducer was not added, the same volume of the solvent, DMSO, was supplied in fly food. Drug administration (2.5 μM) was started from day 2. (FIG. 4A-FIG. 4C) Survival curves of LRRK2^G2019S (FIG. 4A), PINK1^B9 (imprecise excision, null) and PINK1^RV (the precise excision control for PINK1^B9) (FIG. 4B), and SNCA^A53T flies (FIG. 4C). n=58-150. (FIG. 4D) Dopaminergic (DA) neurons in the PPM1/2 clusters of 22-day old flies were immunostained with anti-TH. (FIG. 4D-FIG. 4F) Quantification of the DA neuron number in the PPL1 or PPM1/2 cluster (total number divided by 2 for each brain). (FIG. 4D) LRRK2^G2019S. n=6-8 brains. […]
Fly climbing (negative geotaxis) ability was evaluated as previously described. Briefly, adult flies were gently tapped to the base of a modified 25 ml climbing tube and their climbing progress was recorded after 45 sec. Three populations of flies were assessed, and for each population, flies were examined 3 times per experiment. The recorded values were used to calculate Average Performance Index (PI). […] If the fly flew away, it was recorded as “1”, and if it was unable to fly, it was recorded as “0”. Wing posture was assessed by viewing each fly through a vial under a dissecting microscope. […] A normal wing posture or thorax (Course et al., 2018) was scored as “1”, otherwise “0”. […]

In the case of `O=C(Nc1ccc(Nc2cc(-n3ccnc3)ncn2)cc1)Nc1cccc(F)c1` [Miro1 Reducer], the “locomotor decline (climbing ability)” value is given as “significantly rescued”.
